The IC50 is the concentration that gives 50% inhibition.

32 compounds from patent publication US20100016274A1, “BETA-LACTAM CANNABINOID RECEPTOR MODULATORS” (priority 2006, published 2010) can be followed below.

For the assay, the target named is T1, cannabinoid receptor-1 (CB1), CB1R-containing cell membrane (Homo sapiens, UniProt P21554).
T1 construct: purchased Applied Cell Sciences Inc, Rockville, Md
Description: biochemical. Type of assay: binding. The procedure: Method A using cell membranes. A compound is dissolved in DMSO and diluted to 1 M as a stock solution. […] A CB1R-containing cell membrane (Applied Cell Sciences Inc, Rockville, Md.) is diluted with binding buffer to a protein concentration of 28 μg/ml.
The mixture is incubated for 90 min at room temperature, then filtered through Whatman glass fiber C disc filter in a vacuum manifold. The filter is washed three times each with 2.5 ml cold wash buffer (binding buffer with only 2.5 mg/ml BSA). The vacuum-dried filter is transferred to a scintillation vial, treated with 3 ml Eco-Scint, and the radioactivity is read on a Beckman LS6500 scintillation counter from which an IC50 value is calculated. The corresponding Ki values are obtained from serial dilutions according to this method, and calculated through the use of a non-linear regression program (Graphpad Inc, San Diego, Calif.).

Setting [1] is: IC50, displacement of 3H-CP55940 (1 nM) on CB1 receptors.

Like-named read-outs stand apart in the source and are kept apart here.

T1 sequence (P21554 whole entry, species assumed): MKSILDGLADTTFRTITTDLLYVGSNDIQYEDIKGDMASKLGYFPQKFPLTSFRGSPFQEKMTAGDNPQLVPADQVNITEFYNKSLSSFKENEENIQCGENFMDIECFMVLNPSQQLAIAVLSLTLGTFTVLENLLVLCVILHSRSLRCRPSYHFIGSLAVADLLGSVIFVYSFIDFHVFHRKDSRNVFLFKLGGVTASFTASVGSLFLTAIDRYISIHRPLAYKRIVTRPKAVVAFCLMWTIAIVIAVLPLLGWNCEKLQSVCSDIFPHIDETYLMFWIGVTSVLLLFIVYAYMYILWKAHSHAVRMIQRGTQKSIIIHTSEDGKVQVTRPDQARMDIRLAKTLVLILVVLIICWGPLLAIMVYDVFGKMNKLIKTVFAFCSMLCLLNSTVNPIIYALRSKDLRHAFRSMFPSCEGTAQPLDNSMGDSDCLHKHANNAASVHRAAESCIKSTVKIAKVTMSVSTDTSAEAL

Turning to “2(S)-(tert-Butoxycarbonylaminopropyl)-2-[3(S)-(4(S)-phenyloxazolidin-2-on-3-yl)-4(R)-(styr-2-yl)azetidin-2-on-1-yl]acetic acid N-(3-trifluoromethylbenzyl)amide [Example 20Q]”, the concentration for half-maximal inhibition (IC50) (displacement of 3H-CP55940 (1 nM) on CB1 receptors, read-out: IC50) is under 10 µM.
For `CCCN1CCN(C(=O)CC[C@@H](C(=O)NCc2cccc(C(F)(F)F)c2)N2C(=O)[C@@H](N3C(=O)OC[C@@H]3c3ccccc3)[C@H]2/C=C/c2ccccc2)CC1` [Example 35AJ], the concentration for half-maximal inhibition (IC50) under setting [1] is under 10 µM.
The same measure, in the same setting: next, `CC(C)NC(=O)CN1CCN(C(=O)CC[C@@H](C(=O)NCc2cccc(C(F)(F)F)c2)N2C(=O)[C@@H](N3C(=O)OC[C@@H]3c3ccccc3)[C@H]2/C=C/c2ccccc2)CC1` [Example 35AK]: under 10 µM.
Still for that read-out and setting: then `O=C(CC[C@@H](C(=O)N1CCN(C2CCCCC2)CC1)N1C(=O)[C@@H](N2C(=O)OC[C@@H]2c2ccccc2)[C@H]1/C=C/c1ccccc1)NCC1CCCCC1` [Example 37AA], with under 10 µM; and `O=C(CC[C@@H](C(=O)N1CCN(C2CCCCC2)CC1)N1C(=O)[C@@H](N2C(=O)OC[C@@H]2c2ccccc2)[C@H]1/C=C/c1ccccc1)NCCOc1ccccc1` [Example 37AB], with under 10 µM.
On the same count and under the same terms, next, `O=C(CC[C@@H](C(=O)N1CCN(C2CCCCC2)CC1)N1C(=O)[C@@H](N2C(=O)OC[C@@H]2c2ccccc2)[C@H]1/C=C/c1ccccc1)NCc1ccc2c(c1)OCO2` [Example 37AC]: under 10 µM.
In the case of `O=C(CC[C@@H](C(=O)N1CCN(C2CCCCC2)CC1)N1C(=O)[C@@H](N2C(=O)OC[C@@H]2c2ccccc2)[C@H]1/C=C/c1ccccc1)N1CCC(Cc2ccccc2)CC1` [Example 37AD], the IC50 under setting [1] was under 10 µM.
Turning to `O=C(CC[C@@H](C(=O)N1CCN(C2CCCCC2)CC1)N1C(=O)[C@@H](N2C(=O)OC[C@@H]2c2ccccc2)[C@H]1/C=C/c1ccccc1)Nc1cccc(C(F)(F)F)c1` [Example 37AE], the IC50 under setting [1] was under 10 µM.
On to `O=C(CC[C@@H](C(=O)N1CCN(C2CCCCC2)CC1)N1C(=O)[C@@H](N2C(=O)OC[C@@H]2c2ccccc2)[C@H]1/C=C/c1ccccc1)NCc1cccc(OC(F)(F)F)c1` [Example 37L], for which, under setting [1], the half-inhibitory concentration (IC50) was under 10 µM.
The same measure, in the same setting: next, `O=C(CC[C@@H](C(=O)N1CCN(C2CCCCC2)CC1)N1C(=O)[C@@H](N2C(=O)OC[C@@H]2c2ccccc2)[C@H]1/C=C/c1ccccc1)NCc1ccc(Cl)c(Cl)c1` [Example 37M]: under 10 µM; `O=C(CC[C@@H](C(=O)N1CCN(C2CCCCC2)CC1)N1C(=O)[C@@H](N2C(=O)OC[C@@H]2c2ccccc2)[C@H]1/C=C/c1ccccc1)NCc1cc(Cl)cc(Cl)c1` [Example 37N]: under 10 µM; `O=C(CC[C@@H](C(=O)N1CCN(C2CCCCC2)CC1)N1C(=O)[C@@H](N2C(=O)OC[C@@H]2c2ccccc2)[C@H]1/C=C/c1ccccc1)NCc1cc(Cl)ccc1Cl` [Example 37O]: under 10 µM.
On the same count and under the same terms, then `O=C(CC[C@@H](C(=O)N1CCN(C2CCCCC2)CC1)N1C(=O)[C@@H](N2C(=O)OC[C@@H]2c2ccccc2)[C@H]1/C=C/c1ccccc1)NCc1cccc(Cl)c1Cl` [Example 37P], with under 10 µM; and `O=C(CC[C@@H](C(=O)N1CCN(C2CCCCC2)CC1)N1C(=O)[C@@H](N2C(=O)OC[C@@H]2c2ccccc2)[C@H]1/C=C/c1ccccc1)NCc1cc(C(F)(F)F)ccc1F` [Example 37Q], with under 10 µM.
The same measure, in the same setting: next, `O=C(CC[C@@H](C(=O)N1CCN(C2CCCCC2)CC1)N1C(=O)[C@@H](N2C(=O)OC[C@@H]2c2ccccc2)[C@H]1/C=C/c1ccccc1)NCc1ccc(F)c(C(F)(F)F)c1` [Example 37R]: under 10 µM.
`O=C(CC[C@@H](C(=O)N1CCN(C2CCCCC2)CC1)N1C(=O)[C@@H](N2C(=O)OC[C@@H]2c2ccccc2)[C@H]1/C=C/c1ccccc1)NCc1cccc(C(F)(F)F)c1F` [Example 37T]: under setting [1], the IC50 is under 10 µM.
The same measure, in the same setting: next, `O=C(CC[C@@H](C(=O)N1CCN(C2CCCCC2)CC1)N1C(=O)[C@@H](N2C(=O)OC[C@@H]2c2ccccc2)[C@H]1/C=C/c1ccccc1)NC1CCc2ccccc21` (some centres unmarked) [Example 37V]: under 10 µM.
Take `O=C(CC[C@@H](C(=O)N1CCN(C2CCCCC2)CC1)N1C(=O)[C@@H](N2C(=O)OC[C@@H]2c2ccccc2)[C@H]1/C=C/c1ccccc1)N1CCC(n2c(O)nc3ccccc32)CC1` [Example 37W]: the half-maximal inhibitory concentration (IC50) under setting [1] is under 10 µM.
The same measure, in the same setting: then `O=C(NCCc1ccccc1)[C@H](CCC(=O)N1CCN(C2CCCCC2)CC1)N1C(=O)[C@@H](N2C(=O)OC[C@@H]2c2ccccc2)[C@H]1/C=C/c1ccccc1` [Example 38AC], with under 10 µM.
The same measure, in the same setting: next, `COc1cc(CNC(=O)[C@H](CCC(=O)N2CCN(C3CCCCC3)CC2)N2C(=O)[C@@H](N3C(=O)OC[C@@H]3c3ccccc3)[C@H]2/C=C/c2ccccc2)cc(OC)c1` [Example 38AD]: under 10 µM; `COc1cccc([C@@H](C)NC(=O)[C@H](CCC(=O)N2CCN(C3CCCCC3)CC2)N2C(=O)[C@@H](N3C(=O)OC[C@@H]3c3ccccc3)[C@H]2/C=C/c2ccccc2)c1` [Example 38AE]: under 10 µM.
On the same count and under the same terms, next, `COc1cccc(C(C)NC(=O)C(CCC(=O)N2CCN(C3CCCCC3)CC2)N2C(=O)C(N3C(=O)OCC3c3ccccc3)C2C=Cc2ccccc2)c1` (centres unmarked) [Example 38AF]: under 10 µM; `CC(C)(NC(=O)[C@H](CCC(=O)N1CCN(C2CCCCC2)CC1)N1C(=O)[C@@H](N2C(=O)OC[C@@H]2c2ccccc2)[C@H]1/C=C/c1ccccc1)c1ccccc1` [Example 38AG]: under 10 µM.
As to `O=C(NCc1ccc(C(F)(F)F)cc1)[C@H](CCC(=O)N1CCN(C2CCCCC2)CC1)N1C(=O)[C@@H](N2C(=O)OC[C@@H]2c2ccccc2)[C@H]1/C=C/c1ccccc1` [Example 38BH], the half-inhibitory concentration (IC50) under setting [1] is under 10 µM.
Under setting [1], `O=C(NCc1cccc2ccccc12)[C@H](CCC(=O)N1CCN(C2CCCCC2)CC1)N1C(=O)[C@@H](N2C(=O)OC[C@@H]2c2ccccc2)[C@H]1/C=C/c1ccccc1` [Example 38BL] yielded an IC50 of under 10 µM.
Same read-out and setting: then `O=C(CC[C@@H](C(=O)N1CCc2ccccc2C1)N1C(=O)[C@@H](N2C(=O)OC[C@@H]2c2ccccc2)[C@H]1/C=C/c1ccccc1)N1CCN(C2CCCCC2)CC1` [Example 38BM], with under 10 µM; and `O=C(NCc1ccccc1C(F)(F)F)[C@H](CCC(=O)N1CCN(C2CCCCC2)CC1)N1C(=O)[C@@H](N2C(=O)OC[C@@H]2c2ccccc2)[C@H]1/C=C/c1ccccc1` [Example 38K], with about 10 µM.
Still for that read-out and setting: next, `COc1cccc(CNC(=O)[C@H](CCC(=O)N2CCN(C3CCCCC3)CC2)N2C(=O)[C@@H](N3C(=O)OC[C@@H]3c3ccccc3)[C@H]2/C=C/c2ccccc2)c1` [Example 38L]: about 10 µM; `O=C(NCc1cccc(F)c1)[C@H](CCC(=O)N1CCN(C2CCCCC2)CC1)N1C(=O)[C@@H](N2C(=O)OC[C@@H]2c2ccccc2)[C@H]1/C=C/c1ccccc1` [Example 38M]: about 10 µM; `O=C(NCc1cc(F)cc(F)c1)[C@H](CCC(=O)N1CCN(C2CCCCC2)CC1)N1C(=O)[C@@H](N2C(=O)OC[C@@H]2c2ccccc2)[C@H]1/C=C/c1ccccc1` [Example 38N]: about 10 µM.
The same measure, in the same setting: then `O=C(NCc1ccc(F)c(Cl)c1)[C@H](CCC(=O)N1CCN(C2CCCCC2)CC1)N1C(=O)[C@@H](N2C(=O)OC[C@@H]2c2ccccc2)[C@H]1/C=C/c1ccccc1` [Example 38O], with under 10 µM; and `Cc1cccc(CNC(=O)[C@H](CCC(=O)N2CCN(C3CCCCC3)CC2)N2C(=O)[C@@H](N3C(=O)OC[C@@H]3c3ccccc3)[C@H]2/C=C/c2ccccc2)c1` [Example 38V], with under 10 µM.
